Results taken from the supplement of paper PMC10307832.

Assays:
Test in all cases: relative viability (nuclei count vs DMSO), 5 days (fraction); higher = more cells survive
[1] = compound: CCn1c(-c2nonc2N)nc2cnc(Oc3cccc(NC(=O)c4ccc(OCCN5CCOCC5)cc4)c3)cc21 + NC(=O)Nc1cc(-c2cccc(F)c2)sc1C(=O)N[C@H]1CCCNC1 [AZD7762] (partner 0.2 µM)
How it was run: (§1)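 Lung cancer cell lines were seeded in 1536-well plates and dosed by pin tool the next day, with either a single drug or a fixed anchor-drug dose combined with five library-drug doses (not always all listed) spaced in √10 steps. Five days later, one step fixed the cells and stained their nuclei (final 0.05% Triton X-100, 1% formaldehyde, 1 ug/ml Hoechst), and nuclei were counted on 4× images. Relative viability is the nuclei count in treated wells divided by the count in vehicle wells, and each value is the median of duplicate plates.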

[2] = compound: CCC1=CN=CN=C1N2CCN(CC2)CC3=NC4=C(N3)C=C(C=C4)C(F)(F)F + COc1cccc2cc(-c3nc([C@H]4CC[C@H](C(=O)O)CC4)n4ncnc(N)c34)[nH]c12 [OSI-027] (partner 0.5 µM)
How it was run: as §1

[3] = compound: CCC1=CN=CN=C1N2CCN(CC2)CC3=NC4=C(N3)C=C(C=C4)C(F)(F)F + Nc1ncn([C@H]2C[C@H](O)[C@@H](CO)O2)c(=O)n1 [Decitabine] (partner 2 µM)
How it was run: as §1

[4] = compound: CCn1c(-c2nonc2N)nc2cnc(Oc3cccc(NC(=O)c4ccc(OCCN5CCOCC5)cc4)c3)cc21 + CC1(C)CCC(c2ccc(Cl)cc2)=C(CN2CCN(c3ccc(C(=O)NS(=O)(=O)c4ccc(N[C@H](CCN5CCOCC5)CSc5ccccc5)c(S(=O)(=O)C(F)(F)F)c4)cc3)CC2)C1 [Navitoclax] (partner 0.5 µM)
How it was run: as §1

Cell Line	relative viability ([1]; first compound 0.04 µM)	relative viability ([1]; first compound 0.1265 µM)	relative viability ([1]; first compound 0.4 µM)	relative viability ([1]; first compound 1.265 µM)	relative viability ([1]; first compound 4 µM)	relative viability ([2]; first compound 0.04 µM)	relative viability ([2]; first compound 0.1265 µM)	relative viability ([2]; first compound 0.4 µM)	relative viability ([2]; first compound 1.265 µM)	relative viability ([2]; first compound 4 µM)	relative viability ([3]; first compound 0.04 µM)	relative viability ([3]; first compound 0.1265 µM)	relative viability ([3]; first compound 0.4 µM)	relative viability ([3]; first compound 1.265 µM)	relative viability ([3]; first compound 4 µM)	relative viability ([4]; first compound 0.04 µM)	relative viability ([4]; first compound 0.1265 µM)	relative viability ([4]; first compound 0.4 µM)	relative viability ([4]; first compound 1.265 µM)	relative viability ([4]; first compound 4 µM)
NCI-H1355	0.676	0.684	0.369	0.313	0.217	0.433	0.406	0.373	0.327	0.391	0.326	0.388	0.344	0.339	0.359	0.917	0.946	1.01	0.952	0.968
EKVX	0.927	0.718	0.478	0.476	0.621	0.615	0.73	0.705		0.717	0.264	0.289	0.328	0.344	0.335	1.13	1.01	0.861	0.895	0.831
NCI-H460	0.712	0.465	0.148	0.0565	0.0732	0.752	0.59	0.645	0.538	0.595	0.535	0.424	0.496	0.435	0.452	1.07	1.01	1.13	0.393	0.26
NCI-H1975	0.597	0.471	0.374	0.201	0.214	0.766	0.68	0.676	0.579	0.64	0.358	0.396	0.41	0.339	0.393	0.827	0.818	0.763	0.372	0.286
HCC-78	0.865	0.821		0.617	0.906	0.347	0.37	0.359	0.381	0.372	0.667	0.501	0.643	0.6	0.674	1.05	0.782	0.848	0.878	0.926
NCI-H2085	1.09	0.924	0.927	0.634	0.787	0.825	0.608	0.728	0.328	0.724	0.487	0.526	0.557	0.476	0.573	1.39	1.08	1.02	0.937	1.01
H3255	0.967	0.737	0.742	0.383	0.481	0.559	0.633	0.515	0.566	0.552	0.578	0.555	0.594	0.52	0.55	0.675	0.551	0.454	0.329	0.35
NCI-H2126	1.07	0.998	0.832	0.924	0.839	0.759	0.688	0.624	0.628	0.708	0.598	0.58	0.595	0.541	0.58	0.87	0.822	0.825	0.917	0.84
LC-2-ad	0.882	0.79	0.57	0.368	0.281	0.826	0.908	0.913	0.69	0.791	0.929	0.816	0.792	0.774	0.768	0.522	0.439	0.508	0.214	0.167
RERF-LC-KJ	0.941	0.956	0.448	0.298	0.538	0.517	0.584	0.602	0.517	0.601	0.638	0.627	0.745	0.577	0.611	0.867	0.828	0.946	0.603	0.481
HCC-15	1.3	1.51	0.974	1.05	0.987	0.622	0.651	0.621	0.563	0.599	0.537	0.558	0.633	0.608	0.575	0.876	0.636	0.693	0.586	0.708
NCI-H596	1.23	0.926	0.941	0.762	0.9	0.723	0.683	0.743		0.915	1	1.01	0.958	0.853	1.06	1.06	0.962	1.01	1.01	1.01
LU99A	0.439	0.436	0.241	0.296	0.252	0.287	0.281	0.316	0.283	0.289	0.906	0.877	0.785	0.837	0.843	0.98	0.82	0.841	0.849	0.741
NCI-H1666	0.907	0.875	0.694	0.383	0.477	0.736	0.81	0.816	0.803	0.873	0.746	0.733	0.699	0.65	0.719	1.09	1.28	1.07	0.648	0.495
NCI-H2170	0.763	0.74	0.749	0.577	0.478	0.672	0.682	0.752	0.732	0.726	0.44	0.462	0.451	0.433	0.461	0.392	0.602	0.539	0.626	0.633
LCLC-97TM1	0.273	0.425			0.135	0.477	0.582	0.452	0.506	0.577	0.24	0.205	0.225	0.227	0.215	0.481	0.333		0.463	0.442
